Measured values from ChEMBL document CHEMBL1201862, “PubChem BioAssay data set” (2004).
Calls of active or inactive are those of the source.

Experiments:
[1] = cytotoxicity toward NIH3T3 fibroblasts, dose response, counter-screen, cell-based, ATP luminescence, mouse fibroblasts (AID 2010); assay type: functional;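 also: cells exposed to compound for about 90 hours before reading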
[2] = target: Mucolipin-3 (Homo sapiens, UniProt Q8TDD5); assay: Dose response cell-based high-throughput screening assay for agonists of the transient receptor potential channel ML3 (TRPML3). [Related pubchem assays: 1526, 1424, 1448 ]; assay type: functional
Chain of Mucolipin-3 (Q8TDD5 whole entry): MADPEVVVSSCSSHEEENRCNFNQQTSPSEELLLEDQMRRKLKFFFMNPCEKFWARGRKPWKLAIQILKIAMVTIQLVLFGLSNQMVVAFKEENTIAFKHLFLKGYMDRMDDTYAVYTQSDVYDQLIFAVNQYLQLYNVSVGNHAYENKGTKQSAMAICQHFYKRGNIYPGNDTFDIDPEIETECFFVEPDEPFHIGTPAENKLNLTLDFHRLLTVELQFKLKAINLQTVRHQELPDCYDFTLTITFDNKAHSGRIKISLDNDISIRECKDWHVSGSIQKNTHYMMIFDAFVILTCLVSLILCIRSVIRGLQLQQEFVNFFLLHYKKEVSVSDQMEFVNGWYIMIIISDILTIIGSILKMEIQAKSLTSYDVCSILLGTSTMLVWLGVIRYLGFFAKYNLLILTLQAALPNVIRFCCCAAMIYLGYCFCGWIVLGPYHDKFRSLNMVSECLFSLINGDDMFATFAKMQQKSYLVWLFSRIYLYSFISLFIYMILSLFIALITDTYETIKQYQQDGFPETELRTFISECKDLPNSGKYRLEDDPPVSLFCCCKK

[3] = inhibitors of intracellular T. cruzi replication, confirmation, NIH3T3 host cells, beta-gal luminescence (AID 2044); assay type: functional, cell-based;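 also: intracellular parasites grown in NIH/3T3 mouse fibroblasts as host cells; luminescent beta-galactosidase reporter signal from transgenic T. cruzi replicating inside host cells; inhibitors lower the luminescence signal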
[4] = target: Ion channel NompC (Danio rerio, UniProt Q7T1G6); assay: Fluorescence counterscreen assay for TRPML3 agonists: dose response cell-based high-throughput screening assay to identify agonists of the transient receptor potential channel N1 (TRPN1). [Related pubchem assays: 1526, 1424, 1448 ]; assay type: functional
[5] = system: Streptococcus sp. 'group A'; assay: growth inhibition of control SK(-) GAS strain, dose response, counter-screen for streptokinase expression inhibitor project, luminescence, kanamycin, BacTiterGlo, confirmation (AID 1900); assay type: functional, organism-based
[6] = HIV-1 Env-mediated cell fusion inhibitors, dose response, CCR5-tropic Env (AID 2279); assay type: functional
[7] = target: T1, Streptokinase A (Streptococcus pyogenes serotype M1, UniProt P10520); assay: S. pyogenes streptokinase expression inhibitors, potency, dose response, plasminogen activation absorbance, OD405 (AID 1914); assay type: functional, Streptococcus pyogenes M1 GAS;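 also: secreted streptokinase activity via plasminogen activation per viability signal from cell pellet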
T1 sequence (P10520 whole entry): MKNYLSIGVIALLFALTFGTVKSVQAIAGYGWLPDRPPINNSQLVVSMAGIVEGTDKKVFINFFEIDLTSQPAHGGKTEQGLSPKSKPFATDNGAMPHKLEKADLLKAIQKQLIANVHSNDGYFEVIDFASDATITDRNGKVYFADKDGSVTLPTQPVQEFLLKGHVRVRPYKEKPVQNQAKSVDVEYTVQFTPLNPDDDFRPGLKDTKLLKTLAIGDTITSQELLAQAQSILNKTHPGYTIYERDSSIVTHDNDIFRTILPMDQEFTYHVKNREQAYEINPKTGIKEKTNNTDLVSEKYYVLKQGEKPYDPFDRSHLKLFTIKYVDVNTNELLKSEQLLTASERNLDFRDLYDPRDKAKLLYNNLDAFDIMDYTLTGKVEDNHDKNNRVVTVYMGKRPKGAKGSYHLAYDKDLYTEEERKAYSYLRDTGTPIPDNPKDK

[8] = target: Induced myeloid leukemia cell differentiation protein Mcl-1 (Homo sapiens, UniProt Q07820); assay type: functional
Chain of Induced myeloid leukemia cell differentiation protein Mcl-1 (Q07820 whole entry): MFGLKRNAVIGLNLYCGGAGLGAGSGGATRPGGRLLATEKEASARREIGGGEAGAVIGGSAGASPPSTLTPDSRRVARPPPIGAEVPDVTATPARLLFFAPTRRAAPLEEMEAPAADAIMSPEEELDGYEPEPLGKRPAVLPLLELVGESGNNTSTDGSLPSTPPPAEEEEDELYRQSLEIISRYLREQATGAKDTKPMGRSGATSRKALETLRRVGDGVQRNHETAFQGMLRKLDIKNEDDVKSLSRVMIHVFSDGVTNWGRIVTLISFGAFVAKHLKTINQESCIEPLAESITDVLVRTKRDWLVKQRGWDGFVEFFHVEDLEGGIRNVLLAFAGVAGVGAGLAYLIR

[9] = system: Streptococcus; assay: Group A Streptococcus viability loss, dose response, counter-screen for streptokinase expression inhibitor project, luminescence, BacTiterGlo (AID 1915); assay type: functional, organism-based;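 also: potency for reduction of bacterial viability or growth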
[10] = target: Bcl-2-like protein 10 (Homo sapiens, UniProt Q9HD36); assay: Biochemical TR3 FP assay of Bcl-B inhibitor potency, EC50 (AID 1243); assay type: functional
Chain of Bcl-2-like protein 10 (Q9HD36 whole entry): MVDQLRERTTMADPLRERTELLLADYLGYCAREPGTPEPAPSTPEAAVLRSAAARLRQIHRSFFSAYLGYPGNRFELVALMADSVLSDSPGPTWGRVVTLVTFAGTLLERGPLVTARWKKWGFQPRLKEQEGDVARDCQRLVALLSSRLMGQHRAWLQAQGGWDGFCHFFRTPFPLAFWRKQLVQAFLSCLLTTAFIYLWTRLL

[11] = target: Lytic switch protein BZLF1 (Epstein-Barr virus (strain B95-8) (HHV-4) (Human herpesvirus 4), UniProt P03206); assay: EBV ZTA inhibitors, dose response, counter-screen for EBNA-1 inhibitor project, biochemical, fluorescence polarization, Epstein-Barr virus, 1536-well (AID 2377); design: species or system human gammaherpesvirus 4;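 also: fluorescence polarization of Cy5-labelled ZRE DNA probe bound by purified Zta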
Chain of Lytic switch protein BZLF1 (P03206 whole entry): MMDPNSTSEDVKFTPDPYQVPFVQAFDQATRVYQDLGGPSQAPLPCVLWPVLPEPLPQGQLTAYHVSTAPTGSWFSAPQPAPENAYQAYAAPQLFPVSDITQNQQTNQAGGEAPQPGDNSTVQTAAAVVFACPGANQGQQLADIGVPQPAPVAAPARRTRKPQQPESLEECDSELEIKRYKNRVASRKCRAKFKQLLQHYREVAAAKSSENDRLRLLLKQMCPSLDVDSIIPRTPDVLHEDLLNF

[12] = target: Epstein-Barr nuclear antigen 1 (Epstein-Barr virus (strain B95-8) (HHV-4) (Human herpesvirus 4), UniProt P03211); assay: EBNA-1 inhibitors, dose response, biochemical, fluorescence polarization, 1536-well (AID 2381); design: species or system human gammaherpesvirus 4;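 also: fluorescence polarization of a Cy5 DNA probe bound by EBNA-1 protein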
[13] = target: T2, Sentrin-specific protease 8 (Homo sapiens, UniProt Q96LD8); assay type: functional
T2 sequence (Q96LD8 whole entry): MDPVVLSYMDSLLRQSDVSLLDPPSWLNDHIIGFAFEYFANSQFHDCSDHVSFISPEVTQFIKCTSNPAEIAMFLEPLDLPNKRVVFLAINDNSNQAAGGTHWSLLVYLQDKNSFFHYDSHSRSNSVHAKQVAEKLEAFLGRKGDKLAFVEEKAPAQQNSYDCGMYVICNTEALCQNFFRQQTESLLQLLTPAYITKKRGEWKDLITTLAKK

[14] = target: T2, Sentrin-specific protease 8; assay type: functional; remark: listed apart in the source
[15] = target: T3, Apoptotic protease-activating factor 1 (Homo sapiens, UniProt O14727); assay type: functional
T3 sequence (O14727 whole entry): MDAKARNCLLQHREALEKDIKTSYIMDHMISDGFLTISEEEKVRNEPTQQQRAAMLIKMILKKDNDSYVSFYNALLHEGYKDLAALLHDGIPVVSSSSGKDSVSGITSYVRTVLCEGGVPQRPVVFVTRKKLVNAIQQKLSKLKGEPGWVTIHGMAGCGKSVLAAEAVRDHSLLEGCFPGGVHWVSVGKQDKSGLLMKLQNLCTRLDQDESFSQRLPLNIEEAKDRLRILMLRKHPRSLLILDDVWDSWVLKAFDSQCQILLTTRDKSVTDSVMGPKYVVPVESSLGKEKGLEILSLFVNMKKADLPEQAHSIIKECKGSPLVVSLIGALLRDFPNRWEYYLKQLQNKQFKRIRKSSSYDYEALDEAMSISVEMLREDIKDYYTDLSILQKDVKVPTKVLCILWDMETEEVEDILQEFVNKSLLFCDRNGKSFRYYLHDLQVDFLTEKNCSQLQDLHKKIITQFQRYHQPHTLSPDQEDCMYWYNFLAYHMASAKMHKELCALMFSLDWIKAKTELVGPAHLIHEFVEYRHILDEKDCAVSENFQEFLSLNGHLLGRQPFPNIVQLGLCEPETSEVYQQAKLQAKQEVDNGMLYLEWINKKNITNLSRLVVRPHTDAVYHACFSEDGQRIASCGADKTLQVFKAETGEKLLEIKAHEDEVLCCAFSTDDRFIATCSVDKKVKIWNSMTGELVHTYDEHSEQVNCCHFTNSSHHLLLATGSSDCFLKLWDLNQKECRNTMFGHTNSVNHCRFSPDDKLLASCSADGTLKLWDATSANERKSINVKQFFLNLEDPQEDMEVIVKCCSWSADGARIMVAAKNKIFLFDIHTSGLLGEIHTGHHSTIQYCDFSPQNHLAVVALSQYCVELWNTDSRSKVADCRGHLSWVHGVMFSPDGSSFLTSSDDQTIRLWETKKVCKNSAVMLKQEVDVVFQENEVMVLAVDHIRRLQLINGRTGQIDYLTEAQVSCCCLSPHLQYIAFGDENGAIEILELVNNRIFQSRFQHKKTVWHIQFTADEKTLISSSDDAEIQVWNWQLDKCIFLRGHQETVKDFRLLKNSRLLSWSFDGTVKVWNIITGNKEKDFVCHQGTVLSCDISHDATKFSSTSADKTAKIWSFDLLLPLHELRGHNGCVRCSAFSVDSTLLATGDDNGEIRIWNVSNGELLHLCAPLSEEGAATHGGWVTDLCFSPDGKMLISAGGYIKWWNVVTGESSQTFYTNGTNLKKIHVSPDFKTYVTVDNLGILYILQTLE

[16] = target: Protein-tyrosine kinase 2-beta (Homo sapiens, UniProt Q14289);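 also: potency of inhibitors of PYK2 kinase phosphorylation of poly-GT substrate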
[17] = target: T4, Protein RecA (Mycobacterium tuberculosis, UniProt P9WHJ3); assay: Fluorescence Cell-Free Homogeneous Dose Retest to Identify Inhibitors of RecA-Intein Splicing Activity. [Related pubchem assays (depositor defined):AID2097, AID2223, AID489010, AID492950]; assay type: functional
T4 sequence (P9WHJ3 whole entry): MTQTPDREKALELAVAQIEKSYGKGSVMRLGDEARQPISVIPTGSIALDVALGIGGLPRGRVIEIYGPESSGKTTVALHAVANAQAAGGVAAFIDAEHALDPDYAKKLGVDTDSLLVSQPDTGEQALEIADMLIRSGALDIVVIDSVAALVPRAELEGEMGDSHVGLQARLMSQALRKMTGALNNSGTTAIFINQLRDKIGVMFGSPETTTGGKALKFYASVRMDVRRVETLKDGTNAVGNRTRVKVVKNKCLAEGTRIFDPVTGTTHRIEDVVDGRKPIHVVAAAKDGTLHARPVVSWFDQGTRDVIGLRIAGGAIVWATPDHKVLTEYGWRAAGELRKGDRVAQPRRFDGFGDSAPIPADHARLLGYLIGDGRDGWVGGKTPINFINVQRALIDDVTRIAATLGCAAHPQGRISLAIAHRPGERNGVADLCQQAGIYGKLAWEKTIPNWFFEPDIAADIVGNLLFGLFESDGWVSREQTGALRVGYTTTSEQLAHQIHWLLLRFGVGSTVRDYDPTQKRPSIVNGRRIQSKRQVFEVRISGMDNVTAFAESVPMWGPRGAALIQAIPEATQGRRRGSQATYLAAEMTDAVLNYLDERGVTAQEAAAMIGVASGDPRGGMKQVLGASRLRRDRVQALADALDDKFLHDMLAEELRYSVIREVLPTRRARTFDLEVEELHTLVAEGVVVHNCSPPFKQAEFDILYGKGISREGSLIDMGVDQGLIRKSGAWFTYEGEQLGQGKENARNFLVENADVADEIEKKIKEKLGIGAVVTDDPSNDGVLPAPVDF

[18] = target: T5, Replicative DNA helicase DnaB (Mycobacterium tuberculosis, UniProt P9WMR3); assay: DnaB intein splicing inhibitors, dose response, biochemical, cell-free fluorescence (AID 449749); assay type: functional
T5 sequence (P9WMR3 whole entry): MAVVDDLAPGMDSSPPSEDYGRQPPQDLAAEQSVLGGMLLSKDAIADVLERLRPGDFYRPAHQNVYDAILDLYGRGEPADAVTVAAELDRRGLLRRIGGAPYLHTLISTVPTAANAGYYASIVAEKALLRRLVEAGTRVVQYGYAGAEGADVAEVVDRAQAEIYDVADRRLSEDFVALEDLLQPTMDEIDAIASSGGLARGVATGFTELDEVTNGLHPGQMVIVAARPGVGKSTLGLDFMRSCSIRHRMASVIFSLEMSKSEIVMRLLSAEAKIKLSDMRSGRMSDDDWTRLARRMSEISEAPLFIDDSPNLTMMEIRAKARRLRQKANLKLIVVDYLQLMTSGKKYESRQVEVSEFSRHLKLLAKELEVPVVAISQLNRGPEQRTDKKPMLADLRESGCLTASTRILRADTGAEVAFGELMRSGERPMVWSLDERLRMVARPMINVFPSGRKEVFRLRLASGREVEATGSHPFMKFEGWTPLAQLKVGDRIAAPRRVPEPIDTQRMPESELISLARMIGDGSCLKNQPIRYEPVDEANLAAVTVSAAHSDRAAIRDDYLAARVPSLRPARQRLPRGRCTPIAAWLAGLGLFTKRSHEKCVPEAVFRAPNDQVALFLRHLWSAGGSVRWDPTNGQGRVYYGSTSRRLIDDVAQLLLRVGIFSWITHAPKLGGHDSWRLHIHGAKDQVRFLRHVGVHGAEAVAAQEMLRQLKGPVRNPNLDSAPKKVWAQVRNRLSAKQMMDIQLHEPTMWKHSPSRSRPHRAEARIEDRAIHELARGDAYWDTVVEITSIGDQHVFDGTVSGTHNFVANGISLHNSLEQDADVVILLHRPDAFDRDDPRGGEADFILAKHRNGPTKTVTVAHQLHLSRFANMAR

[19] = inhibitors of Bluetongue virus cytopathic effect, confirmation, arbovirus, BSR cells (AID 1250); assay type: functional;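 also: protection from viral cytopathic effect measured as cell viability by ATP luminescence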
[20] = target: T6, Fatty acid synthase (Homo sapiens, UniProt P49327); assay: FAS thioesterase domain inhibitors, dose response, biochemical, kinetic fluorescence intensity (AID 624326); assay type: functional;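 also: rate of fluorescence rise from hydrolysis of a fluorogenic O-methyl fluorescein ester substrate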
T6 sequence (P49327 whole entry, the tested form may be a part): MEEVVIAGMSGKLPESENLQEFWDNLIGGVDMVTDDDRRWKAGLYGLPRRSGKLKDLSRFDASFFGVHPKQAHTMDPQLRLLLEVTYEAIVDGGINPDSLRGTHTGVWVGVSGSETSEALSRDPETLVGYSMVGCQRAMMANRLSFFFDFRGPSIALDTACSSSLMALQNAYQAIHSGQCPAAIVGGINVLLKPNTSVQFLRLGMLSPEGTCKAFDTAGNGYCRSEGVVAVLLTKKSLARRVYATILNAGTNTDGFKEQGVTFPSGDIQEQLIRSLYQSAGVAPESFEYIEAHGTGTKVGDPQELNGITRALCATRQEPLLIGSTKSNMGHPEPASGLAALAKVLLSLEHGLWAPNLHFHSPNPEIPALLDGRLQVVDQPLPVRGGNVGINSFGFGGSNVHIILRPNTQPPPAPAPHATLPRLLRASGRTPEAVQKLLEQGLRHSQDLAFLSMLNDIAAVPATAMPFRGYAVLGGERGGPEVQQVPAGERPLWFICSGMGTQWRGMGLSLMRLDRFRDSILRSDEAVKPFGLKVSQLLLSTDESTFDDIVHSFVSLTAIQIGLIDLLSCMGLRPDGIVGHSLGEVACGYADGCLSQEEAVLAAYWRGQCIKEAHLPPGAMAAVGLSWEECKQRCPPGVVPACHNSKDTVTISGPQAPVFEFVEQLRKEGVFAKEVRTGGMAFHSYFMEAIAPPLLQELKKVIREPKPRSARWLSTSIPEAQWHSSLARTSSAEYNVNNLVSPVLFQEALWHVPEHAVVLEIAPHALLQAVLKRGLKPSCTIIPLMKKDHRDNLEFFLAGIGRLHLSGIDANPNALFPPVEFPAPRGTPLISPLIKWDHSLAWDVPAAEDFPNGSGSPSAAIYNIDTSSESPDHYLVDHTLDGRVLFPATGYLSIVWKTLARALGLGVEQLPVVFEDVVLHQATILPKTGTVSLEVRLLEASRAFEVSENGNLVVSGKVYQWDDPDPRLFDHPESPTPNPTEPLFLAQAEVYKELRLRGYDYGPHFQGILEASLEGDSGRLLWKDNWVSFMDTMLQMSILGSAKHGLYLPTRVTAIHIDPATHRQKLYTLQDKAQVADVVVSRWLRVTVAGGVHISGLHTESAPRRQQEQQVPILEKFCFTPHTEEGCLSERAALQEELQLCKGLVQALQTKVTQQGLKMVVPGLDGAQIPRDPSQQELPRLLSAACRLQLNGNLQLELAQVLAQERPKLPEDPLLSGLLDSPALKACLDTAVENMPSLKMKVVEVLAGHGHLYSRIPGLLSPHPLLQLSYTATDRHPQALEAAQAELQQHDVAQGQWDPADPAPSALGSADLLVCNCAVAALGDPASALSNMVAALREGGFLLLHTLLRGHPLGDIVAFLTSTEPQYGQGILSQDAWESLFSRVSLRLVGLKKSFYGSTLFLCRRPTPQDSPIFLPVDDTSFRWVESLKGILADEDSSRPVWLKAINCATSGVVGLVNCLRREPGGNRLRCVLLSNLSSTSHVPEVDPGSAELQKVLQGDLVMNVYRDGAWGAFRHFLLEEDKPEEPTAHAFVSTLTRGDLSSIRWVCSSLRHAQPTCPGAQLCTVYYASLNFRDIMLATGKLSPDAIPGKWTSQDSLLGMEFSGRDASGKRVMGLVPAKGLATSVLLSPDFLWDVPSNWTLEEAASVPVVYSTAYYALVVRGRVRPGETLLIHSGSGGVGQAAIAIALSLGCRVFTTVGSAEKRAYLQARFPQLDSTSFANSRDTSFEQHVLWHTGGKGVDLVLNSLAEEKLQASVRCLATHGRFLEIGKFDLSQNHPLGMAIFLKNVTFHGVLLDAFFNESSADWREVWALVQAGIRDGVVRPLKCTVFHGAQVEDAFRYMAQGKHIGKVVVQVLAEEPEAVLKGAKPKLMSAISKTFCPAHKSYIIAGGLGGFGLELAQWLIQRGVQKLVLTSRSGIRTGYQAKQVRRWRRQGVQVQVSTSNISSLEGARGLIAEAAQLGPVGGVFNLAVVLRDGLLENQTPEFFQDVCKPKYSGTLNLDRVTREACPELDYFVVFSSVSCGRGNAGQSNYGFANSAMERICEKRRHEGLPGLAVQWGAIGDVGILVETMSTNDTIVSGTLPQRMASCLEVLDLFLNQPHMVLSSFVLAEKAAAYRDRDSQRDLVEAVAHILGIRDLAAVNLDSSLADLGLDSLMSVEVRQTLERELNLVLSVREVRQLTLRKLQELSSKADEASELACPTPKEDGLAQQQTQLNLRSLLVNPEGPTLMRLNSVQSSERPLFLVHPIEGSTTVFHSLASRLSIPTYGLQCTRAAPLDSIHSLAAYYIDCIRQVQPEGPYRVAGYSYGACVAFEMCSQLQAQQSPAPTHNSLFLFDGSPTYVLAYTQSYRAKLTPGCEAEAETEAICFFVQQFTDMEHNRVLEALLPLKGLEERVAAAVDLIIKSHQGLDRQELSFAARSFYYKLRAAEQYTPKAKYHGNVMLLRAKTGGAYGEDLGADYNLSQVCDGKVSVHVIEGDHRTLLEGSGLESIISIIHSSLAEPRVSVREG

[21] = target: T6, Fatty acid synthase; assay: FAS thioesterase domain inhibitors, dose response, biochemical, endpoint fluorescence intensity, uHTS hits (AID 624327); assay type: functional;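 also: fluorescence from hydrolysis of an O-methyl fluorescein acyl ester substrate by the enzyme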
[22] = target: Sphingosine 1-phosphate receptor 3 (Homo sapiens, UniProt Q99500); assay: Dose response cell-based high throughput screening assay for antagonists of the Sphingosine 1-Phosphate Receptor 3 (S1P3). [Related pubchem assays: 1429, 485 ]; assay type: functional
Chain of Sphingosine 1-phosphate receptor 3 (Q99500 whole entry): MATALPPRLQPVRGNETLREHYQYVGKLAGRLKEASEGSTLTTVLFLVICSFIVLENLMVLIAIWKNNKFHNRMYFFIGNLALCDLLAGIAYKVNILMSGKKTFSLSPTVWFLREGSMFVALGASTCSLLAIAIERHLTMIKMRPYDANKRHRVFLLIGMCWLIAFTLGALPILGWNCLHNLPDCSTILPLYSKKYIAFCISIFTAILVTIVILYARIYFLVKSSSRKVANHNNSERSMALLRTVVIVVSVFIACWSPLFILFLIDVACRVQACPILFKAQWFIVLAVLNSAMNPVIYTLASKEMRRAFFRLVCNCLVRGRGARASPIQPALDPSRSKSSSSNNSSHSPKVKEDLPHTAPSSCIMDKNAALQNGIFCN

[23] = target: 5-hydroxytryptamine receptor 1E (Homo sapiens, UniProt P28566); assay: Counterscreen assay for S1P3 antagonists: Dose response cell-based high throughput screening assay to identify antagonists of the 5-Hydroxytryptamine Receptor Subtype 1E (5HT1E). [Related pubchem assays: 1429, 485 ]; assay type: functional
Chain of 5-hydroxytryptamine receptor 1E (P28566 whole entry): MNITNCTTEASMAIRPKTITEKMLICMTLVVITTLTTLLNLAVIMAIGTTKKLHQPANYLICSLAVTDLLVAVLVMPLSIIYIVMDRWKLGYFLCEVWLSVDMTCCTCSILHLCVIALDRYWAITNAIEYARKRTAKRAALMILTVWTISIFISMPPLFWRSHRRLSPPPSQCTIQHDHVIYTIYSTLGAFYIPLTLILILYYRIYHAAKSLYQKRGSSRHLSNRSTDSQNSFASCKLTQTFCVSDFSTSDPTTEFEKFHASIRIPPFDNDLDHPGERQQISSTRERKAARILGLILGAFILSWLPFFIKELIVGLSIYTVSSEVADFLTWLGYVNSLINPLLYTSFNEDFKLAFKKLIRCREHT

[24] = target: Sphingosine 1-phosphate receptor 2 (Homo sapiens, UniProt O95136); assay: Dose Response Cell Based Assay for Agonists of the S1P2 Receptor of Purchased Analogues. [Related pubchem assays: 729, 843, 854, 736 ]; assay type: functional
Chain of Sphingosine 1-phosphate receptor 2 (O95136 whole entry): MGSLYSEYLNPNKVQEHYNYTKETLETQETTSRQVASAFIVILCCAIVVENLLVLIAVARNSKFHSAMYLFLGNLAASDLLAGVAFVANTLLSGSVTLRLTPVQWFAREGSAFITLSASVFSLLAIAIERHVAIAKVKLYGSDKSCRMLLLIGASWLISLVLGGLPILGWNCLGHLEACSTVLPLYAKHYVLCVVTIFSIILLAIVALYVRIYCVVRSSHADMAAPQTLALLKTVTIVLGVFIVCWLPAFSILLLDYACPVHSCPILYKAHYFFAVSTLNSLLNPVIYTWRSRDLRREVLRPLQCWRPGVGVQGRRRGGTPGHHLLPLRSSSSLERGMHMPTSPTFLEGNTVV

[25] = target: Neuropeptide Y receptor type 1 (Homo sapiens, UniProt P25929); assay type: functional;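 also: HEK293 cells with a CNG channel challenged with NPY then isoproterenol; potency as antagonist that reverses NPY suppression of cAMP signal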
[26] = target: Neuropeptide Y receptor type 2 (Homo sapiens, UniProt P49146); assay type: functional, cell-based;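 also: HEK293 cells expressing the receptor and a CNG channel; stimulus was NPY near EC95 followed by isoproterenol to raise cAMP; antagonist potency measured as restoring cAMP signal that NPY suppresses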

CCN(CC)c1ccc(NC(=O)COc2ccc(N(C)S(=O)(=O)c3cccs3)cc2)cc1
EC50 [1]: > 30 µM (not active)
EC50 [2]: > 29.9 µM (not active)
EC50 [3]: 2.28 µM (active)
EC50 [4]: > 29.9 µM (not active)

CC(C)(C)c1cc(-c2csc(Nc3ccccc3)[n+]2Cc2ccc(C(=O)O)cc2)cc(C(C)(C)C)c1O
EC50 [5]: 1.64 µM (active)
IC50 [6]: 20.7 µM (active)
EC50 [7]: > 150 µM (not active)
IC50 [8]: 2.01 µM (active)
EC50 [9]: 2.87 µM (active)

O=C(O)c1ccc2c(c1)C1C=CCC1C(c1cccc([N+](=O)[O-])c1)N2 (stereo unspecified)
EC50 [10]: 1.75 µM (active)

COC(=O)c1cccc(S(=O)(=O)N2CCC(NC(=O)Nc3cccc(F)c3)CC2)c1
IC50 [11]: > 111 µM (not active)
IC50 [12]: 6.09 µM (active)

O=C1Cc2ccccc2C(=O)N1Cc1ccccc1
IC50 [13]: 1.06 µM (active)
IC50 [14]: > 100 µM (inactive)
IC50 [15]: 3.89 µM (active)
IC50 [16]: > 69.5 µM (not active)
EC50 [17]: 2.04 µM (active)
AC50 [18]: > 380 µM (inconclusive)

COc1ccc(/C=C/C(=O)Nc2cc(C(F)(F)F)ccc2Cl)cc1OC
IC50 [19]: 27.9 µM (active)

Cc1ccc(NC(=O)C2(c3ccc([N+](=O)[O-])cc3)CCCC2)cc1
IC50 [20]: 8.73 µM (active)
IC50 [21]: 14.6 µM (active)
IC50 [22]: 6.92 µM (active)
IC50 [23]: 9.48 µM (active)

CNC(=O)c1ccc(CN(C)CC(=O)c2cc(C)n(Cc3ccccc3)c2C)cc1
EC50 [24]: > 30 µM (not active)

N#Cc1nc(COc2ccc(Cl)cc2)oc1N1CCCCCC1
IC50 [25]: 6.66 µM (active)
IC50 [26]: 16.1 µM (not active)
